Reference: PubChem BioAssay AID1996
Converted amounts (≈) assume the structure as drawn.

conditions: buffer; pH 7.4; 200.0 µM

Row | SMILES | solubility kinetic [µg/mL]
1 | Cc1ccccc1-c1noc(-c2ccccc2C(=O)O)n1 | > 42
2 | O=C1c2ccccc2C(=O)N1CCOc1ccc(F)cc1 | 4 (≈ 14 µM)
3 | COc1nc(C)ccc1-c1noc(-c2cccs2)n1 | 2.5 (≈ 9.15 µM)
4 | CC1CN(CCCCSc2ccccc2)CC(C)O1.Cl (stereo not given) | 41.8
5 | CC(NS(=O)(=O)c1ccc2ccccc2c1)c1ccccn1.Cl (stereo not given) | > 52.3
6 | N#C/C(=C(/O)c1ccc(C(=O)c2ccccc2)cc1)c1nc2ccccc2[nH]1 | < 0.3
7 | C=CCc1cc(Cl)ccc1OCCn1ccnc1.O=C(O)C(=O)O | 39.5
8 | COc1ccc(N(C)S(=O)(=O)c2cccc(C(=O)OCC(=O)N3CC(C)CC(C)C3)c2)cc1 (stereo not given) | 7.3 (≈ 15.4 µM)
9 | COc1ccc2c(c1OC)C(=O)N(c1cccc(NC(C)=O)c1)C2 | 46.6 (≈ 143 µM)
10 | O=C(Nc1cccc(F)c1)Nc1ccc(Cl)cn1 | < 0.2
11 | CN1CCCC(C(O)(c2ccccc2)c2ccccc2)C1 (stereo not given) | 40.8 (≈ 145 µM)
12 | CCc1nnc(NC(=O)CCNC(=O)c2ccccc2Cl)s1 | > 50.8
13 | CCOc1ccccc1NC(=S)NC(=O)CCc1ccccc1 | < 0.4
14 | CC1(C)CC(=O)C(C=Nc2ccc(N)cc2)=C(O)C1 | > 38.7
15 | Cc1csc(SC(C)C(=O)Nc2ccc(F)cc2Cl)n1 (stereo not given) | 44.9 (≈ 136 µM)
16 | Cc1ccc(C23CC4CC(CC(CN)(C4)C2)C3)cc1.Cl | > 43.8
17 | CC(C)(C)c1ccc(Oc2ccc(NC(=O)CCCC(=O)O)cn2)cc1 | > 53.5
18 | CS(=O)(=O)N(CC(=O)Nc1c(F)cccc1F)Cc1ccccc1 | > 53.2
19 | CSC1=NCCN1C(=O)Cc1cccc2ccccc12 | 20.4 (≈ 71.7 µM)
20 | COc1cc2c(cc1OC)CN(CC(=O)Nc1cccc([N+](=O)[O-])c1)CC2 | 14.9 (≈ 40.1 µM)

Row | SMILES | solubility kinetic [µg/mL]
21 | O=C(NCc1ccccc1)c1cccnc1Sc1ccccc1 | 10.6 (≈ 33.1 µM)
22 | CCOc1ccc(NC(=O)c2ccc(CC)s2)c([N+](=O)[O-])c1 | < 0.3
23 | Cc1ccc(NC(=O)c2cc(C)nc3ccccc23)cc1 | 2.1 (≈ 7.6 µM)
24 | COc1cc([N+](=O)[O-])ccc1NC(=O)CSc1ccccn1 | 0.5 (≈ 1.57 µM)
25 | CN(C)c1cccc(C(=O)NCc2ccccc2)c1 | > 38.1
26 | Cc1[nH]c2ccccc2c1C(=O)CN1CC(C)CC(C)C1 (stereo not given) | > 42.7
27 | Cc1ccc(S(=O)(=O)N2CCN(C(=O)N3CCCC3)CC2)cc1 | 48.7 (≈ 144 µM)
28 | O=C(/C=C/c1ccc(F)cc1)OCC(=O)c1ccc[nH]1 | 2.6 (≈ 9.51 µM)
29 | CN1CC2([N+](=O)[O-])CC=C(Cl)C([N+](=O)[O-])(C1)C2 (stereo not given) | > 39.3
30 | CC(CN1CCC(O)CC1)c1ccccc1 (stereo not given) | 26.6 (≈ 121 µM)
31 | O=C(NCc1nc2ccccc2[nH]1)c1ccccc1F | > 40.4
32 | CS(=O)(=O)c1ccc(Cl)c(NC(=O)CCNC(=O)c2ccco2)c1 | 49.9 (≈ 135 µM)
33 | CN(Cc1ccccc1)S(=O)(=O)c1ccc(Cl)c(C(=O)OCC(=O)NC2CCS(=O)(=O)C2)c1 (stereo not given) | 18 (≈ 35 µM)
34 | S=C(Nc1ccccc1)N1CCN(Cc2ccccc2)CC1 | > 46.7
35 | CCN(CC(=O)NC(C)C)C(=O)[C@@H](NC(=O)c1ccco1)C(C)C | > 50.6
36 | COc1cc(/C=C/c2[nH]c(=O)[nH]c(=O)c2[N+](=O)[O-])cc(OC)c1O | > 50.3
37 | N#CCCN(C(=O)COC(=O)CCc1ccccc1)c1ccccc1 | 44.8 (≈ 133 µM)
38 | CC1CCCCC1NC(=S)NC(=O)c1cccs1 (stereo not given) | 5.5 (≈ 19.5 µM)
39 | CC1(C)Cc2cccc(OCC(=O)Nc3ccccc3C(F)(F)F)c2O1 | 7.5 (≈ 20.5 µM)
40 | COc1ccc(CNCc2ccncc2)cc1OC.Cl | > 44.2

Row | SMILES | solubility kinetic [µg/mL]
41 | CSCCn1c(C(C)(C)C)cc(C(=O)O)c1C | 31.3 (≈ 123 µM)
42 | CCOC(=O)c1ccc(Nc2nc(C)cc(C)n2)cc1 | 0.2 (≈ 0.737 µM)
43 | COc1ccc(CC(=O)Nc2cc(S(=O)(=O)Nc3ccc(OC)cc3)ccc2OC)cc1 | 14.6 (≈ 32 µM)
44 | CCN(CC(=O)N1CCCC1)S(=O)(=O)c1ccc(F)cc1 | 44.1 (≈ 140 µM)
45 | COc1cc(Cl)c(C)cc1NC(=O)CN1CCCCCC1 | < 0.3
46 | CCC1CCCCN1CC(=O)Nc1ccc2c(c1)OCCO2 (stereo not given) | > 45.7
47 | Cc1ccc(NC(=O)C2=CC=CN3CCS(=O)(=O)N=C23)cc1 | 11.6 (≈ 36.6 µM)
48 | C=CCn1cccc(C(=O)Nc2ccc(OC)c(Cl)c2)c1=O | 1.5 (≈ 4.71 µM)
49 | Cc1ccccc1NC(=O)Cn1cc(C(=O)C2CC2)c2ccccc21 | 0.7 (≈ 2.11 µM)
50 | N#C/C(=C\c1ccccc1[N+](=O)[O-])C(=O)NCc1ccccc1 | > 46.1
51 | COc1ccc(S(=O)(=O)N2CC(=O)Nc3ccccc32)cc1C | > 49.9
52 | CN(C)C(=O)C(CCN1CCC(O)(c2ccc(Cl)cc2)CC1)(c1ccccc1)c1ccccc1.Cl | > 77
53 | COc1ccc(CN2C(=O)c3ccccc3C2OC)cc1 (stereo not given) | > 42.5
54 | O=C(Nc1ccc(F)cc1)c1cncs1 | > 33.3
55 | CC(=O)N1CCN(c2ccc(NC(=O)c3cccc(C)c3)cc2)CC1 | 7.7 (≈ 22.8 µM)
56 | CCC(=O)Nc1cc(C(=O)O)ccc1Sc1ccc(C)cc1 | 38.8 (≈ 123 µM)
57 | N#Cc1ccc(C(=O)OCC(=O)N2CCN(C(=O)c3ccco3)CC2)cc1 | > 55.1
58 | O=C(CC(=O)c1ccccc1)Nc1ccc(Cl)cc1 | 3.3 (≈ 12.1 µM)
59 | CCN1CCc2c(OCC(=O)N3CCC(C)CC3)cccc2C1=O | 46.2 (≈ 140 µM)
60 | N#C/C(=C(/O)c1cccs1)c1nc2ccccc2[nH]1 | 1.2 (≈ 4.49 µM)
